This passage reports TGI results from PubChem BioAssay (NCI).

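48-hour exposure; five concentrations; linearly interpolated endpoints. TGI is the concentration that stops growth completely.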

Among the test systems are TK-10 renal; DU-145 prostate; SN12C renal; HOP-92 NSCLC; OVCAR-4 ovarian; NCI-H23 lung; OVCAR-8 ovarian; SNB-19 CNS; CAKI-1 renal; UACC-62 melanoma.
What all share (experiment): NCI-60 cell line screen, 48 h

Consider `COC(=O)[C@H]1CO[C@H]2C/C(C)=C/CC/C(C)=C/CC[C@@]3(C)O[C@@H]3C[C@H]21`, for which the TGI is > 50 µM with TK-10 renal; > 50 µM with DU-145 prostate; 24.3 µM in the experiment with SN12C renal; > 50 µM in the experiment with HOP-92 NSCLC; > 50 µM in the experiment on OVCAR-4 ovarian; > 50 µM in the experiment with NCI-H23 lung. In addition, the TGI is > 50 µM in the experiment with OVCAR-8 ovarian, > 50 µM in the experiment with SNB-19 CNS, > 50 µM with CAKI-1 renal and 18.2 µM in the experiment on UACC-62 melanoma.
For `O=c1oc2ccccc2cc1-c1cn2cc(Cl)ccc2n1`, the TGI was 22.3 µM in the experiment with TK-10 renal; > 36.8 µM in the experiment on DU-145 prostate; 22.4 µM with SN12C renal; 36.4 µM with HOP-92 NSCLC; 12.8 µM in the experiment on OVCAR-4 ovarian; 21.1 µM in the experiment with NCI-H23 lung. For the same compound, the TGI is 18.6 µM in the experiment with OVCAR-8 ovarian, 3.66 µM in the experiment on SNB-19 CNS, 3.28 µM in the experiment with CAKI-1 renal and 0.898 µM in the experiment on UACC-62 melanoma.
On to `COC(=O)c1c(OC(C)=O)ccc2c1c1c(n2C)C(=O)c2ccccc2C1=O`, for which the TGI in the experiment with TK-10 renal was 88.1 µM; in the experiment with DU-145 prostate, 62.5 µM; in the experiment on SN12C renal it was > 100 µM; with HOP-92 NSCLC, 9.58 µM; in the experiment on OVCAR-4 ovarian it was > 100 µM; in the experiment with NCI-H23 lung, 61.2 µM. In addition, the TGI in the experiment on OVCAR-8 ovarian was > 100 µM; with SNB-19 CNS, > 100 µM; in the experiment on CAKI-1 renal, 61.7 µM; with UACC-62 melanoma, > 100 µM.
In the case of `CC(=O)Oc1c2oc3ccc(Cl)cc3c(=O)c2c(O)c2ccsc12`, the TGI in the experiment on TK-10 renal, in the experiment with DU-145 prostate, with SN12C renal, in the experiment on HOP-92 NSCLC, in the experiment with OVCAR-4 ovarian and in the experiment with NCI-H23 lung was > 100 µM in each case. Besides, the TGI in the experiment on OVCAR-8 ovarian, in the experiment on SNB-19 CNS, in the experiment with CAKI-1 renal and in the experiment on UACC-62 melanoma was > 100 µM each time.
On to `c1ccc2c(c1)CCc1c-2n(CCN2CCOCC2)c2ccccc12`, for which the TGI with TK-10 renal was > 100 µM; with DU-145 prostate, > 100 µM; in the experiment on SN12C renal, > 100 µM; in the experiment with HOP-92 NSCLC it was 38.1 µM; in the experiment on OVCAR-4 ovarian, > 100 µM; in the experiment on NCI-H23 lung it was > 100 µM. Moreover, the TGI in the experiment with OVCAR-8 ovarian, in the experiment with SNB-19 CNS, in the experiment on CAKI-1 renal and with UACC-62 melanoma was > 100 µM each time.
Turning to `CC(C)(Oc1ccc(Cl)cc1)C(=O)N(C(=O)N1CCC(c2ccccc2)CC1)c1ccccc1`, the TGI in the experiment with TK-10 renal, in the experiment on DU-145 prostate, in the experiment with SN12C renal, in the experiment with HOP-92 NSCLC, in the experiment on OVCAR-4 ovarian and in the experiment with NCI-H23 lung was > 100 µM in each case. Moreover, the TGI in the experiment with OVCAR-8 ovarian, in the experiment on SNB-19 CNS, in the experiment with CAKI-1 renal and in the experiment with UACC-62 melanoma was > 100 µM each time.
For the compound `O=C(Nc1nc2ccccc2s1)c1cc([N+](=O)[O-])ccc1Cl`, the TGI with TK-10 renal was > 100 µM; in the experiment on DU-145 prostate, 86.3 µM; in the experiment on SN12C renal, > 100 µM; in the experiment on HOP-92 NSCLC, > 38.9 µM; in the experiment on OVCAR-4 ovarian it was > 100 µM; with NCI-H23 lung it was > 43.4 µM. Also, the TGI in the experiment with OVCAR-8 ovarian was > 45.4 µM; in the experiment with SNB-19 CNS, > 100 µM; in the experiment on CAKI-1 renal, > 100 µM; in the experiment on UACC-62 melanoma it was > 100 µM.
Take `CCOC(=O)c1cc2c3c(c(C(C)=O)c(O)c2[nH]1)N(CC(C)CC)CC3` (stereo not given): the TGI in the experiment on TK-10 renal, in the experiment with DU-145 prostate, in the experiment with SN12C renal, with HOP-92 NSCLC, in the experiment with OVCAR-4 ovarian and in the experiment with NCI-H23 lung was > 100 µM in each case. The TGI in the experiment with OVCAR-8 ovarian, with SNB-19 CNS, in the experiment on CAKI-1 renal and in the experiment with UACC-62 melanoma was > 100 µM throughout.
As for `N#Cc1ccccc1-c1nc2c3c(c(N)ccc3n1)C(=O)c1ccccc1-2`, the TGI with TK-10 renal, in the experiment on DU-145 prostate, in the experiment with SN12C renal, in the experiment on HOP-92 NSCLC, in the experiment with OVCAR-4 ovarian and with NCI-H23 lung was > 100 µM in each case. The TGI is > 100 µM in the experiment with OVCAR-8 ovarian, > 100 µM in the experiment with SNB-19 CNS, 43.6 µM with CAKI-1 renal and > 100 µM with UACC-62 melanoma.
As to `CC1(O)CC(=O)c2c(cc3ccc(-c4c5c(c(O)c6c(O)cccc46)C(=O)CC(C)(O)C5)c(O)c3c2O)C1` (stereo not given), the TGI in the experiment on TK-10 renal stood at 10.3 µM; in the experiment on DU-145 prostate, 3.43 µM; in the experiment on SN12C renal, 13.1 µM; in the experiment with HOP-92 NSCLC it was 0.815 µM; in the experiment with OVCAR-4 ovarian, 12.9 µM; with NCI-H23 lung, 1.35 µM. Also, the TGI with OVCAR-8 ovarian is 3.76 µM; in the experiment with SNB-19 CNS it was 4.37 µM; with CAKI-1 renal, 2.92 µM; with UACC-62 melanoma, > 100 µM.
For `O=c1c2cc(I)ccc2nc(-c2cccs2)n1-c1ccc(O)cc1`, the TGI was determined as 23.3 µM with TK-10 renal; 19.7 µM in the experiment on DU-145 prostate; 40.7 µM in the experiment with SN12C renal; 26.9 µM with HOP-92 NSCLC; 49.1 µM in the experiment on OVCAR-4 ovarian; 36.7 µM in the experiment on NCI-H23 lung. Moreover, the TGI came out at 29.4 µM in the experiment with OVCAR-8 ovarian, 38.8 µM with SNB-19 CNS, 32.9 µM with CAKI-1 renal and 26.9 µM in the experiment with UACC-62 melanoma.
In the case of `COc1cc(/C=C2/C[C@H]3[C@@H]4CC=C5C[C@@H](OC(C)=O)CC[C@]5(C)[C@H]4CC[C@]3(C)NC2=O)cc(OC)c1OC`, the TGI was 83.3 µM in the experiment with TK-10 renal; 55.3 µM with DU-145 prostate; > 100 µM with SN12C renal; 52.3 µM in the experiment on HOP-92 NSCLC; 62.3 µM in the experiment with OVCAR-4 ovarian; 67 µM in the experiment with NCI-H23 lung. Moreover, the TGI was > 100 µM with OVCAR-8 ovarian, 41.9 µM in the experiment on SNB-19 CNS, > 100 µM with CAKI-1 renal and 47 µM in the experiment on UACC-62 melanoma.
With `CC1=NN(c2nc(N)nc(/C(C#N)=C/c3cccn3-c3cc(Cl)cc(Cl)c3)n2)C(C)(C)C1`, the TGI in the experiment with TK-10 renal, in the experiment with DU-145 prostate, in the experiment on SN12C renal, in the experiment on HOP-92 NSCLC, in the experiment with OVCAR-4 ovarian and in the experiment on NCI-H23 lung was > 100 µM throughout. Besides, the TGI in the experiment with OVCAR-8 ovarian, in the experiment with SNB-19 CNS, with CAKI-1 renal and in the experiment with UACC-62 melanoma was > 100 µM each time.
